# Reference: patent US10688093B2, “Methods, compositions, and uses of novel Fyn kinase inhibitors” (priority 2015, dated 2020)
# Molecular target: full-length recombinant human FYN A (Homo sapiens (Human), UniProt P06241)
# Assay: ADP-Glo Kinase Assay of FYN kinase inhibition
# Type: biochemical
# Conditions: primary screen, initial compounds
# Outline: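 ADP-Glo read-out of peptide phosphorylation after 90 min RT with 12.5 pmol ATP and 100 pg 12-mer substrate. Enzyme was N-GST full-length human FYN A from insect cells, 3 pg, pre-incubated 30 min with compound, 10 points from 10 μM top, 3-fold steps; IC50 from curve.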
# full-length recombinant human FYN A, sequence (P06241 whole entry): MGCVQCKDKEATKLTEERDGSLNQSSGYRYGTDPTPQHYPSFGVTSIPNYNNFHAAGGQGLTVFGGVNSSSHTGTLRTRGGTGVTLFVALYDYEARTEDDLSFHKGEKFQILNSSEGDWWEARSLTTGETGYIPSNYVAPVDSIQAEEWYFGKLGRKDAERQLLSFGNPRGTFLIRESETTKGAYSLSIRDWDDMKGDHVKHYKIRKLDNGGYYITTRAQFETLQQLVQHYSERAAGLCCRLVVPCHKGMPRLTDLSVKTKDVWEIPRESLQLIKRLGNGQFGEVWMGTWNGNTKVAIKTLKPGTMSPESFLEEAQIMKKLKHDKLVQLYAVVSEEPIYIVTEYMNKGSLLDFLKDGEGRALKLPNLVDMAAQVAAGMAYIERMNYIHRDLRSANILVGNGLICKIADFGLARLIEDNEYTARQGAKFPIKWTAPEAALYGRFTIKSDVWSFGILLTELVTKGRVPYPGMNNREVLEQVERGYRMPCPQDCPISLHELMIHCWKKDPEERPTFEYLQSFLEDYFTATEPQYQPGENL
row,IC50 [nM],SMILES
1,835,"COc1cc(-c2cnc3ccc(-c4cccc(OC(F)(F)F)c4)nn23)ccc1O [Compound 462, 2-methoxy-4-[6-[3-(trifluoro-methoxy)phenyl]imidazo[1,2-b]pyridazin-3-yl]phenol]"
2,19200,"CN(C)CCNC(=O)c1cccc(-c2cnc3ccc(-c4cccc(Oc5ccccc5)c4)nn23)c1 [Compound 470, N-(2-dimethylamino-ethyl)-3-[6-(3-phenoxyphenyl)imidazo[1,2-b]pyridazin-3-yl]benzamide]"
3,281,"COc1cc(-c2cnc3ccc(-c4cccc(F)c4)nn23)ccc1O [Compound 472, 4-[6-(3-fluoro-phenyl)imidazo [1,2-b]pyridazin-3-yl]-2-methoxy-phenol]"
4,4420,"COc1cncc(-c2cnc3ccc(Cc4ccc(F)cc4)nn23)c1 [Compound 473, 6-[(4-fluoro-phenyl)methyl]-3-(5-methoxy-3-pyridyl)imidazo [1,2-b]pyridazine]"
5,3230,"OCc1ccc(-c2cnc3ccc(Cc4ccccc4)nn23)cc1 [Compound 479, [4-(6-benzylimidazo [1,2-b]pyridazin-3-yl)phenyl] methanol]"
6,3970,"CC(=O)c1cccc(-c2cnc3ccc(Cc4ccccc4)nn23)c1 [Compound 485, 1-[3-(6-benzylimidazo [1,2-b]pyridazin-3-yl)phenyl] ethanone]"
7,3640,"Nc1ccc(-c2cnc3ccc(Cc4ccccc4)nn23)cn1 [Compound 486, 5-(6-benzylimidazo [1,2-b]pyridazin-3-yl)pyridin-2-amine]"
8,1390,"COc1ccccc1-c1n[nH]c2nccc(-c3ccc(N4CCOCC4)cc3)c12 [Compound 489, 4-[4-[3-(2-methoxyphenyl)-1H-pyrazolo[3,4-b]pyridin-4-yl]phenyl] morpholine]"
9,1280,"COc1ccccc1-c1n[nH]c2nccc(-c3ccc(F)c(Cl)c3)c12 [Compound 490, 4-(3-chloro-4-fluoro-phenyl)-3-(2-methoxy-phenyl)-1H-pyrazolo[3,4-b]pyridine]"
10,6430,"COc1ncc(-c2ccnc3[nH]nc(-c4ccccc4OC)c23)cn1 [Compound 492, 3-(2-methoxyphenyl)-4-(2-methoxy-pyrimidin-5-yl)-1H-pyrazolo[3,4-b]pyridine]"
11,3860,"CN(C)C(=O)c1ccc(-c2ccnc3[nH]nc(-c4cccc(F)c4)c23)cc1 [Compound 493, 4-[3-(3-fluorophenyl)-1H-pyrazolo[3,4-b]pyridin-4-yl]-N,N-dimethyl-benzamide]"
12,8890,"CC(=O)Nc1ccc(-c2ccnc3[nH]nc(C4CC4)c23)cc1 [Compound 495, N-[4-(3-cyclopropyl-1H-pyrazolo[3,4-b]pyridin-4-yl)phenyl] acetamide]"

# The next lines start with the molecule.
row,SMILES,IC50 [nM]
1,"CN(C)CCNC(=O)c1cccc(-c2cnc3ccc(-c4cccc(CO)c4)nn23)c1 [Compound 463, N-(2-dimethylamino-ethyl)-3-[6-[3-(hydroxymethyl)phenyl]imidazo [1,2-b]pyridazin-3-yl]benzamide]",816
2,"NC(=O)c1ccc(-c2cnc3ccc(Cc4ccc(F)c(F)c4)nn23)cc1 [Compound 464, 4-[6-[(3,4-difluorophenyl)methyl]imidazo [1,2-b]pyridazin-3-yl]benzamide]",3070
3,"CC(=O)Nc1cccc(-c2ccc3ncc(-c4cccc(C(=O)NCCN(C)C)c4)n3n2)c1 [Compound 465, 3-[6-(3-acetamidophenyl)imidazo[1,2-b]pyridazin-3-yl]-N-(2-dimethylamino-ethyl)benzamide]",3170
4,"COc1cc(-c2cnc3ccc(-c4cccc(C(F)(F)F)c4)nn23)ccc1O [Compound 466, 2-methoxy-4-[6-[3-(trifluoro-methyl)phenyl]imidazo[1,2-b]pyridazin-3-yl]phenol]",1080
5,"COc1cncc(-c2cnc3ccc(Cc4ccccc4)nn23)c1 [Compound 467, 6-benzyl-3-(5-methoxy-3-pyridyl)imidazo [1,2-b]pyridazine]",2670
6,"Cc1cccc(Cc2ccc3ncc(-c4ccc(C(N)=O)cc4)n3n2)c1 [Compound 468, 4-[6-(m-tolylmethyl)imidazo[1,2-b]pyridazin-3-yl]benzamide]",3100
7,"COc1ccccc1-c1ccc2ncc(-c3cccc(C(=O)NCCN(C)C)c3)n2n1 [Compound 469, N-(2-dimethylamino-ethyl)-3-[6-(2-methoxyphenyl)imidazo[1,2-b]pyridazin-3-yl]benzamide]",2140
8,"Oc1cccc(-c2cnc3ccc(C4CC4)nn23)c1 [Compound 471, 3-(6-cyclo-propylimidazo[1,2-b]pyridazin-3-yl)phenol]",1890
9,"O=C(NCCO)c1cccc(-c2ccc3ncc(-c4ccc(CO)cc4)n3n2)c1 [Compound 475, N-(2-hydroxyethyl)-3-[3-[4-(hydroxymethyl)phenyl]imidazo [1,2-b]pyridazin-6-yl]benzamide]",2140
10,"COc1cc(-c2cnc3ccc(-c4cccc(C(N)=O)c4)nn23)ccc1O [Compound 476, 3-[3-(4-hydroxy-3-methoxy-phenyl)imidazo [1,2-b]pyridazin-6-yl]benzamide]",223
11,"Cc1cccc(Cc2ccc3ncc(-c4cnn(C)c4)n3n2)c1 [Compound 477, 3-(1-methylpyrazol-4-yl)-6-(m-tolylmethyl) imidazo[1,2-b]pyridazine]",1800
12,"CC(=O)c1cccc(-c2cnc3ccc(-c4cccc(C(=O)NCCO)c4)nn23)c1 [Compound 478, 3-[3-(3-acetylphenyl)imidazo[1,2-b]pyridazin-6-yl]-N-(2-hydroxyethyl) benzamide]",629
13,"COc1cc(-c2cnc3ccc(Cc4ccc(F)cc4)nn23)ccc1O [Compound 480, 4-[6-[(4-fluorophenyl)methyl]imidazo [1,2-b]pyridazin-3-yl]-2-methoxy-phenol]",2090
14,"Cn1cc(-c2cnc3ccc(Cc4ccc(F)cc4)nn23)cn1 [Compound 481, 6-[(4-fluorophenyl)methyl]-3-(1-methylpyrazol-4-yl)imidazo [1,2-b]pyridazine]",1300
15,"O=C(NCCO)c1cccc(-c2ccc3ncc(-c4cccc(Cl)c4)n3n2)c1 [Compound 483, 3-[3-(3-chlorophenyl)imidazo[1,2-b]pyridazin-6-yl]-N-(2-hydroxyethyl) benzamide]",30000
16,"Cc1cccc(Cc2ccc3ncc(-c4cccc(C(N)=O)c4)n3n2)c1 [Compound 484, 3-[6-(m-tolylmethyl)imidazo[1,2-b]pyridazin-3-yl]benzamide]",2170
17,"CN(C)CCNC(=O)c1cccc(-c2cnc3ccc(-c4ccoc4)nn23)c1 [Compound 487, N-(2-dimethylamino-ethyl)-3-[6-(3-furyl)imidazo [1,2-b]pyridazin-3-yl]benzamide]",3880
18,"CNC(=O)c1cccc(-c2ccc3ncc(-c4ccc(CO)cc4)n3n2)c1 [Compound 488, 3-[3-[4-(hydroxymethyl)phenyl]imidazo [1,2-b]pyridazin-6-yl]-N-methyl-benzamide]",14900
19,"COc1ccc(-c2ccnc3[nH]nc(-c4ccccc4OC)c23)cn1 [Compound 491, 3-(2-methoxyphenyl)-4-(6-methoxy-3-pyridyl)-1H-pyrazolo[3,4-b]pyridine]",2930
20,"CN(C)C(=O)c1ccc(-c2ccnc3[nH]nc(-c4ccsc4)c23)cc1 [Compound 494, N,N-dimethyl-4-[3-(3-thienyl)-1H-pyrazolo[3,4-b]pyridin-4-yl]benzamide]",11200
